According to US20250302972A1, “FORMULATION” (ENA Respiratory Pty Ltd, priority 2021, published 2025):
“And” between values parts separate entries of the source, which are not always exact repeats. Equal entries are not always repeated.

How the values were obtained:
[1] = test system: SARS-CoV-2; experiment: A204 efficacy against SARS-CoV-2 in the hamster model - prophylaxis; format: in vivo
[2] = Solubility in deionised water; format: physicochemical; details: DI water; read-out: concentration at which fully soluble in deionised (DI) water
Protocol: All spray drying feed solutions were prepared in deionised (DI) water. […] All other excipient components (mannitol, trehalose and HPMC) were also shown readily soluble in the DI water.

[3] = molecular target: T1, human TLR2 (hTLR2) (Homo sapiens, UniProt O60603); experiment: Activation of human TLR2 IV: HEK-BLUE-hTLR2 cells; format: cell-based; details: FIG. 4
T1 construct: host or cells: HEK293 (HEK-BLUE-hTLR2)
Protocol: HEK-BLUE-hTLR2 cells are designed for studying the stimulation of human TLR2 (hTLR2) by monitoring the activation of NF-kB. HEK-BLUE-hTLR2 cells are obtained by co-transfection of the hTLR2 and SEAP (secreted embryonic alkaline phosphatase) reporter genes into HEK293 cells. Stimulation with a TLR2 ligand activates NF-kB which induces the production of SEAP.
HEK-BLUE-hTLR2 cells were purchased from InvivoGen (San Diego, CA, USA). Cells were grown in DMEM supplemented with 10% FCS, 100 U/ml penicillin, 100 ug/ml streptomycin and 2 mM L-glutamine, 100 μg/mL Normocin in the presence of selection antibiotic purchased from InvivoGen and passaged when 70% confluence was reached per manufacturer's recommendation. […]

[4] = Stability IV: formulation pH at each time point; format: physicochemical
Protocol: Each compound was formulated in 0.9% w/w saline with addition of 0.1% w/w EDTA at about pH 5. The formulations were stored in the dark under accelerated conditions (40° C./75% RH) and reference formulations were stored at −80° C. At days 0, 9 and 28, samples were analysed by UHPLC and pH was measured.
The remaining ˜1 mL of solution in the clear glass HPLC vials was stored at 40° C./75% RH and was used to measure pH at each time point.
The formulation pH data recorded at each time point are compiled in Table 19. There was a general trend for the pH to increase with time but the effect was not pronounced.

[5] = test system: SARS-CoV-2; experiment: A204 efficacy against SARS-CoV-2 in the hamster model - treatment; format: in vivo; details: 10 ug/ml in 100 ul, 8 hours post infection; to 7 dpi
[6] = test system: HEK-Blue Null2 cells; experiment: HEK-Blue Null2 control cell line (control for mouse TLR2); format: cell-based; details: TLR2-free control cells
Protocol: (§1) The secreted embryonic alkaline phosphatase (SEAP) reporter is under the control of a promoter inducible by the transcription factor NF-κB. This reporter gene allows the monitoring of signaling through the TLR, based on the activation of NF-κB. In a 96-well plate (200 μL total volume) containing the appropriate cells (50,000-75,000 cells/well), 20 μL of the test article or the positive control ligand (HKLC) is added to the wells. The media added to the wells is designed for the detection of NF-κB induced SEAP expression. After a 16-24-hour incubation the optical density (OD) is read at 650 nm on a Molecular Devices SpectraMax 340PC absorbance detector.

[7] = test system: HEK-Blue Null1 cells; experiment: HEK-Blue Null1 control cell line (control for human TLR2); format: cell-based; details: TLR2-free control cells
Protocol: as §1

[8] = molecular target: T1, human TLR2 (hTLR2); experiment: Activation of human TLR2 II: HEK-BLUE-hTLR2 SEAP reporter assay; format: cell-based
[9] = molecular target: T2, mouse TLR2 (Mus musculus, UniProt Q9QUN7); experiment: HEK-Blue mTLR2 Dose Response (NF-κB SEAP reporter); format: cell-based
T2 construct: expressed in transfected cells; host or cells: HEK-Blue mTLR2
Protocol: (§2) Toll-Like Receptor (TLR) stimulation is tested by assessing NF-κB activation in the TLR expressing cell lines. HEK-Blue h/mTLR2 cells have been stably transfected with human or mouse TLR2 and CD14. The activity of the test articles are tested on human and mouse TLR2, as potential agonists. The test articles are evaluated at seven concentrations and compared to control ligands (see list below). These steps are performed in triplicate.
A 5 μg/mL working stock was then prepared for each compound from the 20 μg/mL dilution in sterile PBS. Starting from the 5 μg/mL working stock, a series of six 1:4 serial dilutions were made by mixing 100 μL of the previous highest dilution with 300 μL sterile PBS.
as §1

[10] = molecular target: T3, human TLR2 (Homo sapiens, UniProt O60603); experiment: HEK-Blue hTLR2 Dose Response (NF-κB SEAP reporter); format: cell-based
T3 construct: expressed in transfected cells; host or cells: HEK-Blue hTLR2
Protocol: as §2
[…] Starting from the 5 μg/mL working stock, a series of six 1:4 serial dilutions were made by mixing 100 μL of the previous highest dilution with 300 μL sterile PBS.
as §1

T1 sequence (O60603 21-784): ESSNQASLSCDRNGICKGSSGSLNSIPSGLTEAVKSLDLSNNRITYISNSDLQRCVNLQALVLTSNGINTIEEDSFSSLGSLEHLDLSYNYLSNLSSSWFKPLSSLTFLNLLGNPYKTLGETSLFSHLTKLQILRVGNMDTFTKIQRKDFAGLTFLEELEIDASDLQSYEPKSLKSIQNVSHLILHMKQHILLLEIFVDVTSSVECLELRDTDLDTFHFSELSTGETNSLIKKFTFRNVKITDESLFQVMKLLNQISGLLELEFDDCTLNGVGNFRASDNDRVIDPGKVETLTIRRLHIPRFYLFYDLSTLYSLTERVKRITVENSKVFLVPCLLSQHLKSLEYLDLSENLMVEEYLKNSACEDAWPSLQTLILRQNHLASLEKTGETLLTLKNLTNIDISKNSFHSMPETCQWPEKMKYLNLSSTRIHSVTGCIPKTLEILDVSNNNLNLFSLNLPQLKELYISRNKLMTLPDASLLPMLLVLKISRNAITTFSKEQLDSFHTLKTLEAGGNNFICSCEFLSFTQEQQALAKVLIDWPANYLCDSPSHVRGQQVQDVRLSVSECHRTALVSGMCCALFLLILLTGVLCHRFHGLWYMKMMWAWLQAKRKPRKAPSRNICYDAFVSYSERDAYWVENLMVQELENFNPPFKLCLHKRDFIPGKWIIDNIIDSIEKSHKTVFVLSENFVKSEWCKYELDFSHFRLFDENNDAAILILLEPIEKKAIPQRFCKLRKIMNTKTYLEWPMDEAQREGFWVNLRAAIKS
T1 sequence (Q9Y2C9 32-796 partner): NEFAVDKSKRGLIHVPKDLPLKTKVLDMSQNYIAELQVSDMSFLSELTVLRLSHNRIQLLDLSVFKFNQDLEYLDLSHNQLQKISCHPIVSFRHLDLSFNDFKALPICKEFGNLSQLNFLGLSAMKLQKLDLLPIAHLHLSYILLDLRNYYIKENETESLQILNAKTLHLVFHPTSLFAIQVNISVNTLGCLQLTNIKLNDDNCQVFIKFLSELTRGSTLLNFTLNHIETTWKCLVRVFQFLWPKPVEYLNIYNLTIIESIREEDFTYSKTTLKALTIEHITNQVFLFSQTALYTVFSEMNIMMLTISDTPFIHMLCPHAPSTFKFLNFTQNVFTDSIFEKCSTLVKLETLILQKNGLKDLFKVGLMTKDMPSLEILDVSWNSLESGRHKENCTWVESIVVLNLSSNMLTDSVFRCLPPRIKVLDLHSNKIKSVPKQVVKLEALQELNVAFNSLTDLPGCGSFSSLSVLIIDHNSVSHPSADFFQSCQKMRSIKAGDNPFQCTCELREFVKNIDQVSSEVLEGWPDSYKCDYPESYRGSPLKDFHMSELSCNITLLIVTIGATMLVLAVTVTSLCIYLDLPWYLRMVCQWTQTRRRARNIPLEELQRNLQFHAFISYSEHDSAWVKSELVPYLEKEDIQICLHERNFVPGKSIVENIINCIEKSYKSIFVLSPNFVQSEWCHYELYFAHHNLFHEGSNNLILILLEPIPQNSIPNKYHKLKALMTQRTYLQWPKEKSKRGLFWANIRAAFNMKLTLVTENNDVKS
T3 sequence (O60603 21-784): as the sequence (O60603 21-784) above
T3 sequence (Q9Y2C9 32-796 partner): as the sequence (Q9Y2C9 32-796 partner) above
T2 sequence (Q9QUN7 25-784): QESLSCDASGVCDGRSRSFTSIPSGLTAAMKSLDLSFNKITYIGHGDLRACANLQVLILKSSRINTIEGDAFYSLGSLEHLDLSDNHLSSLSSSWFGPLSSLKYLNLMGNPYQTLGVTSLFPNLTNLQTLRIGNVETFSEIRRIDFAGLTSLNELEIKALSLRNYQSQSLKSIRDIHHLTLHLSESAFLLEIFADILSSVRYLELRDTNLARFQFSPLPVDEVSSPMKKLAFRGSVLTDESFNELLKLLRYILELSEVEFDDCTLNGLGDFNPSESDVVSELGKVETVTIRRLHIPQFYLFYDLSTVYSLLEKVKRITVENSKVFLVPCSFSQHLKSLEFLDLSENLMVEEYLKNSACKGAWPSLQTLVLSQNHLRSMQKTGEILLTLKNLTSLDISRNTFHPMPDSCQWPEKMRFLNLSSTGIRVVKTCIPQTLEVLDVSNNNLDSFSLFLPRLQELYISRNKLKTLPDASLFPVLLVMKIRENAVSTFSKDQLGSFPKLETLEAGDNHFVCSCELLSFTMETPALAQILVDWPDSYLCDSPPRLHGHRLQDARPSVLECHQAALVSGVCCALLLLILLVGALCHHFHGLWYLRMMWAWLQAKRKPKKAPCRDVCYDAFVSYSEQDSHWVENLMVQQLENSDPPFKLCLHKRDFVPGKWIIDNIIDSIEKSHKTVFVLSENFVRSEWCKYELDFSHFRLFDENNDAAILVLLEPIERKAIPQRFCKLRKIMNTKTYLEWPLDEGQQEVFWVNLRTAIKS
T2 sequence (Q9Y2C9 32-796 partner): as the sequence (Q9Y2C9 32-796 partner) above

CCCCCCCCCCCCCCCC(=O)OCC[C@H](CSC[C@H](N)C(=O)N[C@@H](CO)C(=O)NCCOCCOCCOCCOCCOCCOCCOCCOCCOCCOCCOCCOCCOCCOCCOCCOCCOCCOCCOCCOCCOCCOCCOCCOCCOCCOCCOCCOCCC(=O)NCC(N)=O)OC(=O)CCCCCCCCCCCCCCC [A204]
weight change during infection ([1]; 50 ug/ml in 100 ul intranasal 24 hours prior to infection): lost no weight | lung viral loads versus mock treated animals ([1]; 7 dpi): slightly lower | viral RNA level versus mock treated animals (fold lower) ([1]; throat swabs, 2 days post infection, RT-qPCR): 32 fold | solubility [2]: ≤ 2000 µg/mL | activity at TLR2 [3]: significant activity at TLR2 | formulation pH ([4]; 0-days): 5.0 | formulation pH ([4]; 9-days, 40° C./75% RH): 5.2 | formulation pH ([4]; 28-days, 40° C./75% RH): 5.2 | recovery of weight loss [5]: recovered weight loss more rapidly than PBS treated

CCCCCCCCCCCCCCC(C)C(=O)OCC[C@H](CSC[C@H](N)C(=O)N[C@@H](CO)C(=O)NCCOCCOCCOCCOCCOCCOCCOCCOCCOCCOCCOCCOCCOCCOCCOCCOCCOCCOCCOCCOCCOCCOCCOCCOCCOCCOCCOCCOCCC(=O)NCC(N)=O)OC(=O)C(C)CCCCCCCCCCCCCC (some centres unmarked) [B12]
stimulatory response in HEK-Blue Null2 (mouse) cells [6]: not observed | stimulatory response in HEK-Blue Null1 (human) cells [7]: not observed | optical density (650 nm), screenings 1-3 ([8]; 0.1 ng/mL): 0.239 and 0.202 and 0.208 | optical density (650 nm), screenings 1-3 ([8]; 0.31 ng/mL): 0.116 and 0.132 and 0.137 | optical density (650 nm), screenings 1-3 ([8]; 0.5 ng/mL): 0.585 and 0.558 and 0.559 | optical density (650 nm), screenings 1-3 ([8]; 2.0 ng/mL): 1.429 and 1.308 and 1.638 | optical density (650 nm), screenings 1-3 ([8]; 7.8 ng/mL): 2.187 and 2.257 and 2.302 | optical density (650 nm), screenings 1-3 ([8]; 31.3 ng/mL): 2.422 and 2.423 and 2.449 | optical density (650 nm), screenings 1-3 ([8]; 125 ng/mL): 2.409 and 2.564 and 2.615 | stimulatory (agonist) activity for mTLR2 [9]: possesses stimulatory activity | activity at TLR2 [3]: significant activity at TLR2 | formulation pH ([4]; 0-days): 5.6 | formulation pH ([4]; 9-days, 40° C./75% RH): 5.7 | formulation pH ([4]; 28-days, 40° C./75% RH): 5.7 | optical density (650 nm), Average ([10]; 0.12 pg/mL): 1.362 | optical density (650 nm), screenings 1-3 ([10]; 0.12 pg/mL): 1.443 and 1.313 and 1.329 | optical density (650 nm), Average ([10]; 0.49 pg/mL): 1.860 | optical density (650 nm), screenings 1-3 ([10]; 0.49 pg/mL): 1.892 and 1.785 and 1.902 | optical density (650 nm), Average ([10]; 1.95 pg/mL): 2.045 | optical density (650 nm), screenings 1-3 ([10]; 1.95 pg/mL): 2.149 and 2.008 and 1.979 | optical density (650 nm), Average ([10]; 7.81 pg/mL): 2.411 | optical density (650 nm), screenings 1-3 ([10]; 7.81 pg/mL): 2.420 and 2.446 and 2.366 | optical density (650 nm), Average ([10]; 31.25 pg/mL): 2.457 | optical density (650 nm), screenings 1-3 ([10]; 31.25 pg/mL): 2.492 and 2.500 and 2.380 | optical density (650 nm), Average ([10]; 125 pg/mL): 2.568 | optical density (650 nm), screenings 1-3 ([10]; 125 pg/mL): 2.608 and 2.541 and 2.555 | optical density (650 nm), Average ([10]; 500 pg/mL): 2.471 | optical density (650 nm), screenings 1-3 ([10]; 500 pg/mL): 2.584 and 2.404 and 2.426 | stimulatory (agonist) activity for hTLR2 ([10]; HEK-Blue hTLR2): possesses stimulatory activity
